Assay results published in US20260048060A1, “POLYCYCLIC THYROID HORMONE b RECEPTOR AGONIST AND USE THEREOF” (CASCADE PHARMACEUTICALS, INC., priority 2022, published 2026).

Legend:
[1] = target: T1, THRβ (Homo sapiens, UniProt P10828); test: Time-resolved FRET (THR-FRET) agonist activity assay, GST-tagged THRβ LBD with SRC2 polypeptide; format: biochemical; conditions: ratio of THR-FRET EC50 values THRα/THRβ
T1 construct: made in house; host or cells: E. coli BL21 (DE3)
T1 sequence (P10828 217-461 limits assumed): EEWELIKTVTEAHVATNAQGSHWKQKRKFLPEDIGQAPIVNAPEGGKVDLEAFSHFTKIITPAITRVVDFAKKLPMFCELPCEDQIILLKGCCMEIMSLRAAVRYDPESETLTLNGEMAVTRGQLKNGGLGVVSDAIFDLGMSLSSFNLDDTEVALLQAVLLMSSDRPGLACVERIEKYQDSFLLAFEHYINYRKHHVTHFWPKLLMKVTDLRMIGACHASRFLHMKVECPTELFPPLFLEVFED
Source text: Experimental Example 2: Detection of Agonist Activities of Compounds Against THRα/β Based on Time-Resolved Fluorescence Resonance Energy Transfer (THR-FRET)
By visiting NCBI, the THRα/β LBD domain sequences were found. The pET21-His-GST-dLBT-THRα LBD and pET21-His-GST-dLBT-THRβ LBD overexpression vectors were constructed by the fusion method, and sequenced to confirm the accuracy of the sequences.
The correctly sequenced THRα LBD and THRβ LBD overexpression vectors were transfected into E. coli cells BL21 (DE3), and spread on an agar plate with ampicillin. Monoclones were picked out and amplified in an LB medium, and transferred into 1 L LB at a ratio of 1:100 for large-scale culture. When the OD value was at 0.8 to 1.2, 0.5 mM isopropyl-beta-D-thiogalactopyranoside (IPTG) was added, and induced overnight at 18° C. The bacteria were harvested, disrupted, and purified via the GST column and the molecular sieve to obtain two proteins His-GST-dLBT-THRα LBD and His-GST-dLBT-THRβ LBD.
The proteins were taken out from a refrigerator at −80° C. The proteins with the GST-tagged THRα/β LBD domain and the Eu-labelled GST antibodies were thawed slowly on ice, and an assay buffer containing a final concentration of 5 mM dithiothreitol (DTT) was formulated.
The starting concentration of the compound was 100 μM (in DMSO). The compound (100 μM in DMSO) was subjected to 3-fold isogradient dilution with DMSO to obtain a total of 11 isogradient concentrations. Subsequently, the above compounds at the isogradient concentration were further subjected to 50-fold dilution with an assay buffer containing 5 mM DTT.
The final concentrations of all components were calculated based on a system with a final volume of 20 μL per well. To 18 μL of assay buffer containing 5 mM DTT, the GST-tagged THRα/β proteins, the SRC2 ([…]) polypeptide, XL665 (Cisobio, #610SAXLB), and the Eu-labeled GST antibody were added, and the final concentrations were 2 nM, 200 nM, 0.05 nM, and 7.6 nM respectively to formulate 18 μL of reaction mixture of the proteins, polypeptide, and antibody per well.
18 μL of reaction mixture and 2 μL of diluted compound were added into an optiplate-384-well plate, and reacted at room temperature for 24 h.
The plate was read using an MD i3X multi-mode microplate reader with the excitation and emission wavelengths of 340 nm and 665 nm, respectively. The intensity of light at a wavelength of 616 nm generated by europium excited by 340 nm wavelength light from the MD i3X multi-mode microplate reader was used as the background. According to the different activation degrees of different compounds against THRα and THRβ, the intensity of the emission light at a wavelength of 665 nm generated by exciting XL665 with the exciting light at a wavelength of 616 nm was varied. The intensity ratio between these two light wavelengths (665 nm, 616 nm) was used as the activation activity of the compound against THRα or THRβ, and the ratio in the solvent DMSO group was used for normalization. The dose-response curve was fitted with four parameters using the GraphPad Prism 6.0 software, and the EC50 value was calculated.

[2] = target: T2, THRβ (Homo sapiens, UniProt P10828); test: Reporter gene (GAL4-THRβ-LBD / Dual-Glo luciferase) agonist activity assay in HEK293T cells; format: cell-based; conditions: ratio of reporter gene EC50 values THRα/THRβ
T2 construct: expressed in transfected cells; host or cells: HEK293T
T2 sequence (P10828 217-461): T1 sequence (P10828 217-461 limits assumed)
Source text: Experimental Example 1: Detection of THRα and THRβ Agonist Activities of Compounds Based on Reporter Gene Activity Assay Method
1.1 Construction and Preparation of Plasmids pGAL4-THR-LBD and pG5-Luc
The pGAL4-THRα-LBD and pGAL4-THRβ-LBD plasmids used in the reporter gene assay system were constructed by a conventional molecular cloning method comprising the following main steps: the cDNA sequences of THRα (NM_003250) and THRβ (NM_000461) corresponding to the amino acid sequences of THRα (163-407AA) and THRβ (217-461AA) were inserted into the BamHI and NotI enzyme digestion sites of the pGAL4 vector by the PCR technique respectively to obtain the pGAL4-THRα-LBD and pGAL4-THRβ-LBD plasmids; the pG5-Luc (#E249A) and pRL-TK (#E2241) plasmids were purchased from Promega; the plasmids were transfected into the E. coli DH5α by the CaCl2 method, and after further culture and amplification, the plasmids were purified by Plasmid Extraction Kits (TIANGEN, #D107) to obtain the corresponding plasmid DNAs.
1.2 Co-Transfection of Plasmids into HEK293T Cells and Treatment with Compounds
The HEK293T cells were inoculated into a 96-well plate at a density of 1×10^4/well the day before plasmid transfection. Cell transfection was conducted according to the instructions of the transfection reagent FuGENE® HD (Promega, #E2311). The main steps were as follows: taking one well as an example here, the plasmids pGAL4-THRα-LBD or pGAL4-THRβ-LBD, pG5-Luc, and pRL-TK were added in the proportions of 20 ng, 50 ng, and 5 ng to 10 μL of Opti-MEM™ I medium (Gibco, #11058021) and mixed well; subsequently, 0.25 uL of FuGENE® HD was added, mixed well, and then left at room temperature for 5 min; afterwards, 10 μL of the mixture was added to the cell wells containing 100 μL of culture medium. After cell co-transfection for 6 h, the compound was diluted in a 3-fold gradient with dimethyl sulfoxide at the highest concentration of 1 uM. The compound was added to the cell culture medium at a total of 10 concentrations for treatment for 24 h. There were a total of two duplicate wells for each concentration. Triiodothyronine (T3) was used as the positive control.
1.3 Dual-Glo Luciferase Assay
After the cells were treated with the compound for 24 h, the cells were assayed according to the instructions of Dual-Glo® Luciferase Assay System (Promega, #E2940). The main steps were as follows: 50 μL of culture medium was aspirated from each well and discarded, and then 50 μL of Dual-Glo® Luciferase reagent was added and oscillated at room temperature for 10 min; 80 μL of lysis reaction solution was measured into a white opaque optiPlate-96-well plate, and the luminescence signal value (Firefly-Luc) of the Firefly luciferase was detected using an MD i3x multi-mode microplate reader; 40 μL of Dual-Glo® Stop & Glo® reagent was then added, and oscillated at room temperature for 10 min; the luminescence signal value (Renilla-Luc) of the Renilla luciferase was then detected using an MD i3x multi-mode microplate reader. The Firefly-Luc/Renilla-Luc ratio was used as the activation activity of the compound against THR, and the ratio in the solvent DMSO group was used for normalization; the dose-response curve was fitted with four parameters using the GraphPad Prism6.0 software, and the EC50 value was calculated.

Row | Selectivity (THRα/THRβ) [1] | Selectivity (THRα/THRβ) [2] | Compound
1 | †† (††: 10 ≥ THRα/β;) | † (†: 5 ≥ THRα/β;) | [2H]C(Oc1ccccc1C(=O)NC([2H])([2H])[2H])c1c(Br)cc(-n2nc(C(F)F)c(=O)[nH]c2=O)cc1Br (stereo not drawn) [Compound 110]
2 | †† (††: 10 ≥ THRα/β;) | † (†: 5 ≥ THRα/β;) | [2H]C([2H])([2H])NC(=O)c1ccccc1OCc1c(Br)cc(-n2nc(C([2H])(F)F)c(=O)[nH]c2=O)cc1Br [Compound 112]
3 | †† (††: 10 ≥ THRα/β;) | † (†: 5 ≥ THRα/β;) | [2H]C(Oc1ccccc1C(=O)NC([2H])([2H])[2H])c1c(Br)cc(-n2nc(C([2H])(F)F)c(=O)[nH]c2=O)cc1Br (stereo not drawn) [Compound 113]

The remaining lines, values behind:

Row | Compound | Selectivity (THRα/THRβ) [1] | Selectivity (THRα/THRβ) [2]
4 | [2H]C([2H])(Oc1ccccc1C(=O)NC)c1c(Br)cc(-n2nc(C(F)F)c(=O)[nH]c2=O)cc1Br [Compound 108] | †† (††: 10 ≥ THRα/β;) | † (†: 5 ≥ THRα/β;)
5 | [2H]C([2H])([2H])NC(=O)c1ccccc1OCc1c(Br)cc(-n2nc(C(F)F)c(=O)[nH]c2=O)cc1Br [Compound 109] | †† (††: 10 ≥ THRα/β;) | † (†: 5 ≥ THRα/β;)
6 | [2H]C(Oc1ccccc1C(=O)NC)c1c(Br)cc(-n2nc(C([2H])(F)F)c(=O)[nH]c2=O)cc1Br (stereo not drawn) [Compound 111] | †† (††: 10 ≥ THRα/β;) | † (†: 5 ≥ THRα/β;)
